Source: Sander's compilation of Henry's law constants (doi:10.1016/1352-2310(94)00256-k)

Assay: Henry solubility constant Hcp at 298.15 K (mol/(m3 Pa))
Details: reference: Dewulf et al. (1995)

| Structure (SMILES) | Henry solubility constant Hcp |
| --- | --- |
| CC(Cl)(Cl)Cl [1,1,1-trichloroethane] | 0.00067 |
| Cc1ccccc1C [1,2-dimethylbenzene] | 0.0024 |
| Cc1cccc(C)c1 [1,3-dimethylbenzene] | 0.0016 |
| Cc1ccc(C)cc1 [1,4-dimethylbenzene] | 0.0017 |
| c1ccccc1 [benzene] | 0.0021 |
| CCc1ccccc1 [ethylbenzene] | 0.0015 |
| Cc1ccccc1 [methylbenzene] | 0.0018 |
| ClC(Cl)=C(Cl)Cl [tetrachloroethene] | 0.00069 |
| ClC(Cl)(Cl)Cl [tetrachloromethane] | 0.00038 |
| ClC=C(Cl)Cl [trichloroethene] | 0.0012 |
